Values quoted from earlier work, collected in article PMC6952392, “A combined computational and experimental strategy identifies mutations conferring resistance to drugs targeting the BCR-ABL fusion protein” (Communications Biology, 2020).
Like-named read-outs stand apart in the source and are kept apart here.

How the values were obtained:
[1] = safety window

Compound: COc1cc(Nc2c(C#N)cnc3cc(OCCCN4CCN(C)CC4)c(OC)cc23)c(Cl)cc1Cl [bosutinib]
- in vitro inhibitory activity (BCR-ABL): sub-nanomolar range

Compound: Cc1cn(-c2cc(NC(=O)c3ccc(C)c(Nc4nccc(-c5cccnc5)n4)c3)cc(C(F)(F)F)c2)cn1 [nilotinib]
- effective safe plasma concentration [1]: < 1500 ng/mL

Compound: Cc1ccc(C(=O)Nc2ccc(CN3CCN(C)CC3)c(C(F)(F)F)c2)cc1C#Cc1cnc2cccnn12 [ponatinib]
- in vitro inhibitory activity (BCR-ABL; general statement, no reference given): sub-nanomolar range
